Results from patent US20120157453A1, “RAF INHIBITOR COMPOUNDS AND METHODS OF USE THEREOF” (GENENTECH, INC., priority 2009, published 2012).
Where two headings read alike, the source gives them in different places.

Legend:
[1] = target: T1, V600E full-length B-Raf (Homo sapiens, UniProt P15056, V600E); experiment: B-Raf IC50 assay (incorporation of 33P phosphate into FSBA-modified MEK); type: biochemical
T1 construct: 1 μM FSBA-MEK and 20 nM V600E full-length B-Raf; made in house; host or cells: Sf9 insect cells (baculovirus)
Excerpt: Determining the activity of Raf in the sample is possible by a number of direct and indirect detection methods (US 2004/0082014). Activity of human recombinant B-Raf protein may be assessed in vitro by assay of the incorporation of radio labeled phosphate to recombinant MAP kinase (MEK), a known physiologic substrate of B-Raf, according to US 2004/0127496 and WO 03/022840. The activity/inhibition of V600E full-length B-Raf was estimated by measuring the incorporation of radio labeled phosphate from [γ-^33P]ATP into FSBA-modified wild-type MEK (see Example A).
Activity of human recombinant B-Raf protein may be assessed in vitro by assay of the incorporation of radio labeled phosphate to recombinant MAP kinase (MEK), a known physiologic substrate of B-Raf, according to US 2004/0127496 and WO 03/022840. Catalytically active human recombinant B-Raf protein is obtained by purification from sf9 insect cells infected with a human B-Raf recombinant baculovirus expression vector.
The activity/inhibition of V600E full-length B-Raf was estimated by measuring the incorporation of radio labeled phosphate from [γ-^33P]ATP into FSBA-modified wild-type MEK. The 30-μL assay mixtures contained 25 mM Na Pipes, pH 7.2, 100 mM KCl, 10 mM MgCl2, 5 mM β-glycerophosphate, 100 μM Na Vanadate, 4 μM ATP, 500 nCi [γ-^33P]ATP, 1 μM FSBA-MEK and 20 nM V600E full-length B-Raf. Incubations were carried out at 22° C. in a Costar 3365 plate (Corning). Prior to the assay, the B-Raf and FSBA-MEK were preincubated together in assay buffer at 1.5× (20 μL of 30 nM and 1.5 μM, respectively) for 15 minutes, and the assay was initiated by the addition of 10 μL of 10 μM ATP. Following the 60-minute incubation, the assay mixtures were quenched by the addition of 100 μL of 25% TCA, the plate was mixed on a rotary shaker for 1 minute, and the product was captured on a Perkin-Elmer GF/B filter plate using a Tomtec Mach III Harvester. After sealing the bottom of the plate, 35 μL of Bio-Safe II (Research Products International) scintillation cocktail were added to each well and the plate was top-sealed and counted in a Topcount NXT (Packard).

[2] = test system: basal ERK1/2 phosphorylation in Malme-3M cells; experiment: Cellular ERK 1/2 phosphorylation assay; type: cell-based; conditions: Homo sapiens, 1 h, pERK normalized to total ERK
Protocol: Inhibition of basal ERK1/2 phosphorylation was determined by the following in vitro […], which comprises incubating cells with a compound of Formula II for 1 hour and quantifying the fluorescent pERK signal on fixed cells and normalizing to total ERK signal.
Materials and Methods: Malme-3M cells were obtained from ATCC and grown in RPMI-1640 supplemented with 10% fetal bovine serum. Cells were plated in 96-well plates at 24,000 cells/well and allowed to attach for 16-20 hours at 37° C., 5% CO2. The media was removed, and DMSO-diluted compounds were added in RPMI-1640 at a final concentration of 1% DMSO. The cells were incubated with the compounds for 1 hour at 37° C., 5% CO2. The cells were washed with PBS and fixed in 3.7% formaldehyde in PBS for 15 minutes. This was followed by washing in PBS/0.05% Tween20 and permeabilizing in −20° C. 100% MeOH for 15 minutes. Cells were washed in PBS/0.05% Tween20 then blocked in Odyssey blocking buffer (LI-COR Biosciences) for 1 hour. Antibodies to phosphorylated ERK (1:400, Cell Signaling #9106, monoclonal) and total ERK (1:400, Santa Cruz Biotechnology #sc-94, polyclonal) were added to the cells and incubated 16-20 hours at 4° C. After washing with PBS/0.05% Tween20, the cells were incubated with fluorescently-labeled secondary antibodies (1:1000 goat anti-rabbit IgG-IRDye800, Rockland and 1:500 goat anti-mouse IgG-Alexa Fluor 680, Molecular Probes) for an additional hour. Cells were then washed and analyzed for fluorescence at both wavelengths using the Odyssey Infrared Imaging System (LI-COR Biosciences). Phosphorylated ERK signal was normalized to total ERK signal.

[3] = B-Raf V600E, bound less than 1 μM, read-out: IC50
[4] = Example A assay, 4 μM ATP, 20 nM enzyme, 60-minute incubation, read-out: BRAF V600E IC50

T1 sequence (P15056 whole entry V600E): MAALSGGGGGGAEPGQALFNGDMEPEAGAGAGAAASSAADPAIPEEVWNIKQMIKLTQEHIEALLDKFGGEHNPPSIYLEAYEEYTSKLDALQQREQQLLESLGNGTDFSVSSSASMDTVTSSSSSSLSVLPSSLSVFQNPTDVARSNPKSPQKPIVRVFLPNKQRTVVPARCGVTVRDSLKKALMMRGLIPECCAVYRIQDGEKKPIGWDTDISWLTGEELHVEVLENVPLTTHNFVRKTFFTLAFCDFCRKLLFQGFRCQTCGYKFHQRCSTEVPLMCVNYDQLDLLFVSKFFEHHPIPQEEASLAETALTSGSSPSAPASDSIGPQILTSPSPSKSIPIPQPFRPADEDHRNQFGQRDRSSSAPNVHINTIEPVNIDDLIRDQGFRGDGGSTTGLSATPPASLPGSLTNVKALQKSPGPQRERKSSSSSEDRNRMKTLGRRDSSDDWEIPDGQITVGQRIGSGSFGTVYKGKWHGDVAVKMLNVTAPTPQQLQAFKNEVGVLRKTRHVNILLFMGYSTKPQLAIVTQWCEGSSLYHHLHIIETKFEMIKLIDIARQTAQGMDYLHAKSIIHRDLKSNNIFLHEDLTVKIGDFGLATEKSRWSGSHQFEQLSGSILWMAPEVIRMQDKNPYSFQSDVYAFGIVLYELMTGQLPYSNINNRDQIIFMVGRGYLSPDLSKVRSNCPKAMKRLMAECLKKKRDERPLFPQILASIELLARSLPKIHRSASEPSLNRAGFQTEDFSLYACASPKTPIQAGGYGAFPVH

| SMILES | IC50 [1, 3] [nM] | IC50 [1, 4] [nM] | IC50 [2] [nM] | IC50 ([2]; bound less than 500 nM) [nM] | IC50 ([2]; bound less than 1 μM) [nM] | IC50 [1] [nM] |
| --- | --- | --- | --- | --- | --- | --- |
| CCS(=O)(=O)Nc1ccc(F)c(NC(=O)Nc2ncnc3[nH]nc(OC)c23)c1Cl [Example 5, Ethanesulfonic acid {2-chloro-4-fluoro-3-[3-(3-methoxy-1H-pyrazolo[3,4-d]pyrimidin-4-yl)-ureido]-phenyl}-amide] | < 1000 | 3.9 | 47.9 | < 500 | < 1000 |  |
| CCCS(=O)(=O)Nc1ccc(F)c(NC(=O)Nc2ncnc3[nH]ncc23)c1F [Example 11, Propane-1-sulfonic acid {2,4-difluoro-3-[3-(1H-pyrazolo[3,4-d]pyrimidin-4-yl)-ureido]-phenyl}-amide] | < 1000 |  |  | < 500 | < 1000 | 5.5 |
| CCCS(=O)(=O)Nc1ccc(F)c(NC(=O)Nc2ncnc3[nH]nc(OCC)c23)c1F [Example 9, N-(3-(3-(3-Ethoxy-1H-pyrazolo[3,4-d]pyrimidin-4-yl)ureido)-2,4-difluorophenyl)propane-1-sulfonamide] | < 1000 | 0.9 |  | < 500 | < 1000 |  |
| CCCS(=O)(=O)Nc1ccc(F)c(NC(=O)N(C)c2ncnc3[nH]cnc23)c1F [Example 1, Propane-1-sulfonic acid {2,4-difluoro-3-[3-methyl-3-(9H-purin-6-yl)-ureido]-phenyl}-amide] | < 1000 | 23.9 |  | < 500 | < 1000 |  |
| CCCS(=O)(=O)Nc1ccc(F)c(NC(=O)Nc2ncnc3sccc23)c1F [Example 17, Propane-1-sulfonic acid [2,4-difluoro-3-(3-thieno[2,3-d]pyrimidin-4-yl-ureido)-phenyl]-amide] | < 1000 | 97.9 |  | < 500 | < 1000 |  |
| CCCS(=O)(=O)Nc1ccc(Cl)c(NC(=O)Nc2ncnc3[nH]nc(OC)c23)c1F [Example 16, Propane-1-sulfonic acid {4-chloro-2-fluoro-3-[3-(3-methoxy-1H-pyrazolo[3,4-d]pyrimidin-4-yl)-ureido]-phenyl}-amide] | < 1000 | 0.6 |  | < 500 | < 1000 |  |
| CCCS(=O)(=O)Nc1ccc(F)c(NC(=O)Nc2ncnc3[nH]nc(OC)c23)c1F [Example 10, Propane-1-sulfonic acid {2,4-difluoro-3-[3-(3-methoxy-1H-pyrazolo[3,4-d]pyrimidin-4-yl)-ureido]-phenyl}-amide] | < 1000 | 1.4 |  | < 500 | < 1000 |  |
| CCCS(=O)(=O)Nc1ccc(F)c(NC(=O)Nc2ncnc3[nH]nc(OC)c23)c1Cl [Example 2, Propane-1-sulfonic acid {2-chloro-4-fluoro-3-[3-(3-methoxy-1H-pyrazolo[3,4-d]pyrimidin-4-yl)-ureido]-phenyl}-amide] | < 1000 | 1.3 |  | < 500 | < 1000 |  |
| CCCS(=O)(=O)Nc1ccc(F)c(NC(=O)Nc2ncnc3[nH]nc(OC)c23)c1OC [Example 8, Propane-1-sulfonic acid {4-fluoro-2-methoxy-3-[3-(3-methoxy-1H-pyrazolo[3,4-d]pyrimidin-4-yl)-ureido]-phenyl}-amide] | < 1000 | 192 |  |  | < 1000 |  |
| CCCS(=O)(=O)Nc1ccc(Cl)c(NC(=O)Nc2ncnc3sccc23)c1F [Example 22, Propane-1-sulfonic acid [4-chloro-2-fluoro-3-(3-thieno[2,3-d]pyrimidin-4-yl-ureido)-phenyl]-amide] | < 1000 | 18.8 |  | < 500 | < 1000 |  |
| CCS(=O)(=O)Nc1ccc(Cl)c(NC(=O)Nc2ncnc3[nH]nc(OC)c23)c1F [Example 4, Ethanesulfonic acid {4-chloro-2-fluoro-3-[3-(3-methoxy-1H-pyrazolo[3,4-d]pyrimidin-4-yl)-ureido]-phenyl}-amide] | < 1000 | 1.9 |  | < 500 | < 1000 |  |
| CCCS(=O)(=O)Nc1ccc(F)c(NC(=O)Nc2ncnc3[nH]c(=S)[nH]c23)c1F [Example 23, Propane-1-sulfonic acid {2,4-difluoro-3-[3-(8-thioxo-8,9-dihydro-7H-purin-6-yl)-ureido]-phenyl}-amide] | < 1000 | 29.2 |  |  |  |  |
| CCCS(=O)(=O)Nc1ccc(F)c(NC(=O)Nc2ncnc3oc(C)c(C)c23)c1F [Example 18, Propane-1-sulfonic acid {3-[3-(5,6-dimethyl-furo[2,3-d]pyrimidin-4-yl)-ureido]-2,4-difluoro-phenyl}-amide] | < 1000 | 431 |  |  |  |  |
| CCCS(=O)(=O)Nc1ccc(F)c(NC(=O)Nc2ncnc3sc(C)c(C)c23)c1F [Example 20, Propane-1-sulfonic acid {3-[3-(5,6-dimethyl-thieno[2,3-d]pyrimidin-4-yl)-ureido]-2,4-difluoro-phenyl}-amide] | < 1000 | 28.2 |  |  | < 1000 |  |
| CCS(=O)(=O)Nc1ccc(F)c(NC(=O)Nc2ncnc3[nH]nc(OC)c23)c1F [Example 3, Ethanesulfonic acid {2,4-difluoro-3-[3-(3-methoxy-1H-pyrazolo[3,4-d]pyrimidin-4-yl)-ureido]-phenyl}-amide] | < 1000 | 3.4 | 13.5 | < 500 | < 1000 |  |
| CCCS(=O)(=O)Nc1ccc(F)c(NC(=O)Nc2ncnc3[nH]nc(I)c23)c1F [Example 7, Propane-1-sulfonic acid {2,4-difluoro-3-[3-(3-iodo-1H-pyrazolo[3,4-d]pyrimidin-4-yl)-ureido]-phenyl}-amide] | < 1000 | 3.8 |  |  | < 1000 |  |
| CCCS(=O)(=O)Nc1ccc(F)c(NC(=O)Nc2ncnc3sc4c(c23)CCC4)c1F [Example 19, Propane-1-sulfonic acid {3-[3-(6,7-dihydro-5H-cyclopenta[4,5]thieno[2,3-d]pyrimidin-4-yl)-ureido]-2,4-difluoro-phenyl}-amide] | < 1000 | 25.2 | 176 | < 500 | < 1000 |  |
| CCCS(=O)(=O)Nc1ccc(F)c(NC(=O)Nc2ncnc3[nH]nc(OCCCO)c23)c1F [Example 15, Propane-1-sulfonic acid {2,4-difluoro-3-{3-[3-(3-hydroxy-propoxy)-1H-pyrazolo[3,4-d]pyrimidin-4-yl]-ureido}-phenyl)-amide] | < 1000 | 428 |  |  |  |  |
| CCCS(=O)(=O)Nc1ccc(F)c(NC(=O)N(C)c2ncnc3[nH]ccc23)c1F [Example 6, Propane-1-sulfonic acid {2,4-difluoro-3-[3-methyl-3-(7H-pyrrolo[2,3-d]pyrimidin-4-yl)-ureido]-phenyl}-amide] | < 1000 | 57 |  |  |  |  |
| CCCS(=O)(=O)Nc1ccc(F)c(NC(=O)Nc2ncnc3[nH]nnc23)c1F [Example 14, Propane-1-sulfonic acid {2,4-difluoro-3-[3-(3H-[1,2,3]triazolo[4,5-d]pyrimidin-7-yl)-ureido]-phenyl}-amide] |  | 1960 |  |  |  |  |
